Measured values as given in PMC7815984 (Biochemical and biophysical research communications, 2020).

How the values were obtained:
[1] = system: rat aortic ring microvessel outgrowth; experiment: Rat aortic ring assay of angiogenesis; assay type: cell-based, Sprague Dawley rats
[2] = system: Human Umbilical Vein Endothelial Cells (HUVECs); experiment: Endothelial cell tube formation assay
[3] = system: Human Umbilical Vein Endothelial Cells (HUVECs); details: 12.5–100 μM; cited from earlier work
[4] = biological target: TBD (residues 319–425 of human CRBN) (Homo sapiens, UniProt Q96SW2); assay type: binding; details: competitive MST
Chain of TBD (residues 319–425 of human CRBN) (Q96SW2 319-425): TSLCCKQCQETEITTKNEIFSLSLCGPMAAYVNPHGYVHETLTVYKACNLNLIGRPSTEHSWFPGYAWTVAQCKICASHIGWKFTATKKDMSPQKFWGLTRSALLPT

CO[C@@H]1[C@H](OC(=O)NC(=O)CCl)CC[C@]2(CO2)[C@H]1[C@@]1(C)O[C@@H]1CC=C(C)C [TNP-470]
suppression of angiogenesis (positive control) ([1]; 50 μM TNP-470, 4 days): 92%

O=C1c2c(F)c(F)c(F)c(F)c2C(=O)N1c1ccc(F)cc1F [CPS49]
inhibition of tube formation compared with vehicle control (positive control) ([2]; 30 μM CPS49, HUVECs, 18 hours): 89%

O=C1CCC(N2C(=O)c3ccccc3C2=O)C(=O)N1 (stereo not shown) [Thalidomide, 2-phthalimidinoglutarimide]
antiangiogenic activity in tube formation (in words) ([2]; 100 μM, HUVECs): did not demonstrate potent antiangiogenic activity | tube formation, previous results (in words) [3]: failed to significantly block tube formation | microvessel outgrowth (in words) ([1]; 100 μM, 4 days): not significantly blocked

CC(C)N1C(=O)NC(=O)C(C)(NC(=O)c2ccccc2)C1=O (stereo not shown) [Gu3407, N-(1-Isopropyl-5-methyl-2,4,6-trioxo-hexahydropyrimidin-5-yl)benzamide]
binding to TBD of human CRBN (in words) [4]: did not show any binding | inhibition of tube formation at initial screening dose (in words) ([2]; 10 μM, HUVECs, 18 hours): no inhibition | inhibition of tube formation over concentration range (in words) ([2]; 10–100 μM, HUVECs): no significant inhibition

O=C1CCC(N2C(=O)c3c(F)c(F)c(F)c(F)c3C2=O)C(=O)N1 (stereo not shown) [Gu3041, 2-(2,6-Dioxo-3-piperidyl)-4,5,6,7-tetrafluoro-isoindoline-1,3-dione]
tube formation over concentration range (in words) ([2]; 0.1–10 μM, HUVECs): reduced tube formation in a concentration-dependent manner

NC(=O)c1nnn(Cc2cc(Cl)c(C(=O)c3ccc(Cl)cc3)c(Cl)c2)c1N [CAI, carboxyamidotriazole]
suppression of angiogenesis (positive control) ([1]; 30 μM CAI, 4 days): 95%
